Reference: publication PMC12592502, “Unraveling the mechanisms behind the enhanced efficacy of β-lactam-based sideromycins” (Communications Biology, 2025)
Converted amounts (≈) assume the structure as drawn. Read-outs that look alike come from different tables or passages of the source.

Experiments:
E. coli ATCC 25922 = assay: MIC, broth microdilution (CLSI); format: cell-based, Escherichia coli; conditions: for MIC: Escherichia coli; for MIC ratio 0/1: 0 and 1 µg/mL supplemental iron (Table S2); for MIC ratio 1/0: 1 versus 0 µg/mL supplemental iron (peer review file table)
Procedure: (§1) All bacterial strains (see description and sources Table S1) were stored at −80 °C, and grown on tryptone soya agar (TSA) at 35 °C. The iron-deprived (ID)-MHBCA (cation-adjusted Muller-Hinton Broth, Becton Dickinson, Mississauga, ON, Canada) medium was prepared as reported by refs. [21],[50]. Briefly, MHBCA was treated with 10% Chelex® 50-100 mesh (Sigma) and stirred for 6 h at room temperature. The resin was removed by filtration. Divalent Ca^2+ (CaCl2), Mg^2+ (MgCl2), and Zn^2+(ZnSO4), were then added in the iron-depleted medium at 22, 12, and 1 μg/ml respectively. Finally, the pH was adjusted to 7.3, and the medium was sterilized with a 0.2-μm filter. Regular MHBCA (i.e., not treated with Chelex®) was used to compare the inhibitory activity of conjugates in iron-sufficient conditions.
(§2) Minimal inhibitory concentrations (MICs) were performed using a broth microdilution technique according to the Clinical and Laboratory Standards Institute (CLSI) guidelines. MICs were determined in MHBCA and in ID-MHBCA. To check the impact of β-lactamases, MICs in the presence of a β-lactamase inhibitor were also determined. The inhibitor was homogenized at 2X the final concentration and added to the bacterial inoculum just before distributing cells into the wells containing the drug dilutions. The final concentration of each inhibitor was 4 μg/mL for clavulanic acid (tested against K. pneumoniae) and 200 μg/mL for 3-aminophenylboronic acid (tested against P. aeruginosa and A. baumannii).

E. coli ΔcirA = assay: MIC, Keio mutant; format: cell-based, Escherichia coli; conditions: Escherichia coli
Procedure: as §1, §2

E. coli ΔfhuA = assay: MIC, Keio mutant; format: cell-based, Escherichia coli; conditions: Escherichia coli
Procedure: as §1, §2

E. coli Δfiu = assay: MIC, Keio mutant; format: cell-based, Escherichia coli
Procedure: as §1, §2

P. aeruginosa 1020 = assay: MIC, parent of efflux pump mutants; format: cell-based, Pseudomonas aeruginosa; conditions: Pseudomonas aeruginosa
Procedure: as §2

[1] = tested on: P. aeruginosa 1624 ΔmexCD-oprJ, ΔmexEF-oprN; assay: MIC, efflux pump mutant; format: cell-based, Pseudomonas aeruginosa; conditions: Pseudomonas aeruginosa
Procedure: as §2

[2] = tested on: P. aeruginosa 1625 ΔmexAB-oprM, ΔmexEF-oprN; assay: MIC, efflux pump mutant; format: cell-based, Pseudomonas aeruginosa; conditions: Pseudomonas aeruginosa
Procedure: as §2

PBP1a/1b = assay: Membrane PBP binding assay, competition with Bocillin FL; set-up: species or system E. coli MC4100; conditions: E. coli MC4100 membranes, 12.5 μM Bocillin FL
Procedure: (§3) Membrane extracts containing PBPs were obtained as described above. Briefly, all species were grown in 1 L of TSB until the OD600 reached 0.9. The washed pellet was incubated with lysozyme (400 μg/mL), DNase (10 μg/mL) RNase(10 μg/mL) and anti-protease cocktail (200 mg/20 mL). Lysis was done with a French press (20,000 psi) and membrane protein were pelleted by ultracentrifugation steps (100,000 × g). The pellet was suspended in a minimal volume (300–500 μL) of KP 0.05 M buffer at pH 7. The protein concentration in the membrane preparations was determined with the Micro BCA TM Protein Assay Kit (Thermo Fisher Scientific, Rockford, IL) using bovine serum albumin as a standard.
(§4) The PBP binding assay was done as described previously[36],[56],[57]. For each antibiotic concentration tested, a quantity of 25 to 40 μg of membrane preparation was used as the source of PBPs, depending on the species. For the purified PaPBP3, 150 ng was used in the assay. First, increasing concentrations of the test antibiotic was added to the membrane or purified PaPBP3 preparations and incubated for 10 min at 30 °C. The reporter molecule Bocillin FL was then added at 12.5 μM for the membrane PBPs preparations and at 500 nM for the pure PaPBP3 samples for an additional 20 min at 30 °C. All reactions were stopped with the addition of the Laemmli-loading buffer (Bio-Rad) containing fresh β-mercaptoethanol (Sigma). All reactions were then heated at 100°C for 3 min before migration on SDS-polyacrylamide discontinuous gel system (7.5% stacking and 10% separating). Control samples without Bocillin FL were also included to highlight autofluorescent proteins that are not PBPs.
(§5) To be able to visualize labeled PBPs after electrophoresis, gels were rinsed in water and fixed in a solution of 50% methanol and 7% acetic acid for 30 min. The fluorescent images of gels were obtained with the Typhoon FLA 9500 instrument (GE-Healthcare Bio-Sciences Inc., Baie-d’Urfé, QC, CA) using a 473 nm excitation wavelength. To obtain quantifiable data, the software Quantity One 1D analysis was used (version 4.6.6; Bio-Rad Laboratories, Richmond, CA). The volume (intensity × constant area) of each PBP was measured. […] All IC50 data were obtained from at least two independent PBP binding assays using two different sets of compound concentrations using a linear regression. The PBP profiles were confirmed, and the PBP numbering were determined using published data and individual molecular weights. […] For example, amdinocillin (Sigma) was used for PBP2 identification. […] The IC50 for PBP 2 of P. aeruginosa was measured by including the SDS-PAGE comigrating autofluorescent protein in the background, as done previously.

PBP2 = target: T1, PBP2 (Escherichia coli, UniProt P0AD65); assay: as above; set-up: species or system E. coli MC4100
T1 construct: using bacterial membranes as the source of PBPs; endogenous in cells; host or cells: E. coli MC4100 membrane preparation
Procedure: as §3, §4, §5

PBP3 = target: T2, PBP3 (Escherichia coli, UniProt P0AD68); assay: as above; set-up: species or system E. coli MC4100
T2 construct: using bacterial membranes as the source of PBPs; endogenous in cells; host or cells: E. coli MC4100 membrane preparation
Procedure: as §3, §4, §5

PBP4 = target: T3, PBP4 (Escherichia coli, UniProt P24228); assay: as above; set-up: species or system E. coli MC4100
T3 construct: using bacterial membranes as the source of PBPs; endogenous in cells; host or cells: E. coli MC4100 membrane preparation
Procedure: as §3, §4, §5

[3] = ATCC25922, ID-MHBCA + 0.1 µg/mL supplemental iron
[4] = ATCC25922, iron-deprived ID-MHBCA (−), 0 µg/mL supplemental iron
[5] = ATCC25922, ID-MHBCA + 1 µg/mL supplemental iron
[6] = E. coli MC4100 membranes, read-out: IC50 PBP2
[7] = E. coli MC4100 membranes, read-out: IC50 PBP3
[8] = E. coli MC4100 membranes, read-out: IC50 PBP4

N[C@@H](C(=O)N[C@@H]1C(=O)N2C(C(=O)O)=C(Cl)CS[C@H]12)c1ccccc1 [CEF, cefaclor, reference compound]
MIC (E. coli ATCC 25922; [3]): 3.1 µM
MIC (E. coli ATCC 25922; ATCC25922, MHBCA (+)): 3.1 µM (≈ 1.14 µg/mL)
MIC (E. coli ATCC 25922; [4]): 3.1 µM (≈ 1.14 µg/mL)
MIC ratio 0/1 (E. coli ATCC 25922; ID-MHBCA): 1
MIC ratio 1/0 (E. coli ATCC 25922; ID-MHBCA): 1
MIC (E. coli ΔcirA; ID-MHBCA): 25 µM (≈ 9.2 µg/mL)
MIC (E. coli ΔcirA; MHBCA): 13 µM (≈ 4.78 µg/mL)
MIC (E. coli ΔfhuA; ID-MHBCA): 13 µM (≈ 4.78 µg/mL)
MIC (E. coli ΔfhuA; MHBCA): 13 µM (≈ 4.78 µg/mL)
MIC (E. coli Δfiu; Escherichia coli, ID-MHBCA): 13 µM (≈ 4.78 µg/mL)
MIC (E. coli Δfiu; Escherichia coli, MHBCA): 13 µM (≈ 4.78 µg/mL)
MIC (P. aeruginosa 1020; 1020): > 200 µM
MIC [1]: > 200 µM
MIC [2]: > 200 µM
IC50 (PBP1a/1b): 34 ± 2 µM
IC50 (PBP2): > 50 µM
IC50 (PBP3): 15.4 ± 0.9 µM
IC50 (PBP4): 40.2 ± 8.6 µM

CC1(C)S[C@@H]2[C@H](NC(=O)[C@H](N)c3ccccc3)C(=O)N2[C@H]1C(=O)O [AMP, ampicillin, reference compound]
MIC (E. coli ATCC 25922; [5]): 25 µM
MIC (E. coli ΔcirA; ID-MHBCA): 25 µM (≈ 8.74 µg/mL)
MIC (E. coli ΔfhuA; ID-MHBCA): 25 µM (≈ 8.74 µg/mL)
MIC (E. coli Δfiu; Escherichia coli, ID-MHBCA): 25 µM (≈ 8.74 µg/mL)
MIC (P. aeruginosa 1020; 1020): > 200 µM
MIC [1]: > 200 µM
MIC [2]: > 200 µM
IC50 (PBP1a/1b): 7.22 ± 0.07 µM
IC50 (PBP2; [6]): 11.4 ± 2.4 µM
IC50 (PBP3; [7]): 1.92 ± 0.94 µM
IC50 (PBP4; [8]): 8.3 ± 0.8 µM

CC1(C)SC2C(NC(=O)C(NC(=O)CN(CCCCNC(=O)c3cccc(O)c3O)C(=O)c3cccc(O)c3O)c3ccccc3)C(=O)N2C1C(=O)O (centres unmarked) [BAMP, bis-catechol (azotochelin)-ampicillin]
MIC (E. coli ATCC 25922; [3]): 0.1 µM
MIC (E. coli ATCC 25922; [5]): 0.2 µM
MIC (E. coli ATCC 25922; ATCC25922, MHBCA (+)): 0.1 µM (≈ 0.075 µg/mL)
MIC (E. coli ATCC 25922; [4]): 0.05 µM (≈ 0.0375 µg/mL)
MIC ratio unconjugated β-lactam/conjugate (E. coli ATCC 25922; ID-MHBCA): 256
MIC ratio 0/1 (E. coli ATCC 25922; ID-MHBCA): 4
MIC ratio 1/0 (E. coli ATCC 25922; ID-MHBCA): 4
MIC ratio unconjugated β-lactam/conjugate (AMP/BAMP, LOR/BLOR, CEF/MCEF) (E. coli ATCC 25922; MHBCA): 128
MIC (E. coli ΔcirA; ID-MHBCA): 0.2 to 13 µM (≈ 0.15 to 9.75 µg/mL)
MIC (E. coli ΔcirA; MHBCA): 13 µM (≈ 9.75 µg/mL)
MIC (E. coli ΔfhuA; ID-MHBCA): 0.1 µM (≈ 0.075 µg/mL)
MIC (E. coli Δfiu; Escherichia coli, ID-MHBCA): 0.024 µM (≈ 0.018 µg/mL)
MIC (E. coli Δfiu; Escherichia coli, MHBCA): 0.1 to 0.4 µM (≈ 0.075 to 0.3 µg/mL)
MIC (E. coli Δfiu; MHBCA): 0.2 µM (≈ 0.15 µg/mL)
MIC (P. aeruginosa 1020; P. aeruginosa 1020, read-out: MIC): 0.4 µM (≈ 0.3 µg/mL)
MIC [1]: 0.4 µM (≈ 0.3 µg/mL)
MIC [2]: 0.2 µM (≈ 0.15 µg/mL)
IC50 (PBP1a/1b): 2.4 ± 0.54 µM
IC50 (PBP2; [6]): 2.26 ± 0.57 µM
IC50 (PBP3; [7]): 0.091 ± 0.007 µM
IC50 (PBP4; [8]): > 50 µM
